In patent US9817000B2, “Method for identifying compounds that modulate a T2R taste receptor” (The Regents of the University of California, priority 1999, dated 2017):
Substitutions are numbered along the chain they refer to. pEC50: −log10 of the molar value.

Columns and labels:
[1] = target: T1, mT2R5 coupling to Gαs, Gαi, Gαq or Gαo (Mus musculus, UniProt Q9JKT4); assay: Tastant-induced GTPγS binding to other G-protein α-subunits with mT2R5 membranes; assay type: biochemical
T1 construct: infectious Bacmid containing rhodopsin tagged mT2R5 (DBA/2-allele) was produced using the Bac-to-Bac system; rhodopsin tag (rho); made in house; host or cells: insect larval cells infected with recombinant Bacmid (Bac-to-Bac); membrane preparation
T1 sequence (Q9JKT4 1-300): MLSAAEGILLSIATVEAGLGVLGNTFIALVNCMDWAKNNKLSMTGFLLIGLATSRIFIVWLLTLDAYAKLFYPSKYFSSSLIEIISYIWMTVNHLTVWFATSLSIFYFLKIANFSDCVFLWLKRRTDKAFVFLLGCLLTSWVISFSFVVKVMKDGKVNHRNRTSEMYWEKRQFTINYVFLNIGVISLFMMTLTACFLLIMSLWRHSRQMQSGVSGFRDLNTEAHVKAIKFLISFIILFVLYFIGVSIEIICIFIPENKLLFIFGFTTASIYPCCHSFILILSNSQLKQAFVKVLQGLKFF
Method: To investigate the selectivity of T2R-G-protein coupling, mT2R5 was chosen for study because its activation by cycloheximide recapitulates mouse taste responses. Rho-tagged mT2R5 and gustducin were prepared using a baculovirus expression system. mT2R5-containing membranes were incubated with various purified G-proteins, including gustducin, and measured tastant-induced GTP-γS binding (Hoon et al., Biochem J 309:629-636 (1995)). Specifically, infectious Bacmid containing rhodopsin tagged mT2R5 (DBA/2-allele) was produced using the Bac-to-Bac system (Lifetechnologies, MD). Insect larval cells were infected for 60 h with recombinant Bacmid and membranes were prepared as described previously (Ryba and Tirindelli, J Biol Chem, 270:6757-6767 (1995)). Peripheral proteins were removed by treatment with 8 M urea and membranes were resuspended in 10 mM HEPES pH7.5, 1 mM EDTA and 1 mM DTT. The expression of rho-mT2R5 was assessed by Western blot using mAb B6-30 and quantitated by comparison with known amounts of rhodopsin. Approximately 300 pmol of rho-mT2R5 could be obtained from 2×10^8 infected cells. […] Receptor-catalyzed exchange of GDP for GTPγS on gustducin and other G-protein α-subunits was measured in the presence of 10 nM rho-mT2R5, 100 μM GDP, and 20 μM Gβ1γ8. […]

[2] = target: T2, mT2R5 (C57BL/6-allele) (Mus musculus, UniProt Q9JKT4, G155D/I85V/L294R/T101A/T44I); assay: FURA-2 [Ca2+]i imaging in HEK-293 cells expressing Gα15 and rho-mT2R5 from non-taster strain (C57BL/6 allele); assay type: cell-based
T2 construct: expressed in transfected cells; host or cells: modified HEK-293 cells (PEAKrapid) expressing Gα15
T2 sequence (Q9JKT4 1-300 T44I/I85V/T101A/G155D/L294R): T1 sequence (Q9JKT4 1-300) with T44I, I85V, T101A, G155D, L294R
Method: A bridge overlap PCR extension technique was used to generate rho-T2R chimeras, which contain the first 39 amino acids of bovine rhodopsin in frame with human and rodent T2R coding sequences (Mehta and Singh, Biotechniques 26:1082-1086 (1999). All receptors were cloned into a pEAK10 mammalian expression vector (Edge Biosystems, MD). Modified HEK-293 cells (PEAK^rapid cells; Edge BioSystems, MD) were grown and maintained at 37° C. in UltraCulture medium (Bio Whittaker) supplemented with 5% fetal bovine serum, 100 μg/ml Gentamycin sulphate (Fisher), 1 μg/ml Amphotericin B and 2 mM GlutaMax I (Lifetechnologies). […]
Transfected cells were washed once in Hank's balanced salt solution with 1 mM sodium pyruvate and 10 mM HEPES, pH 7.4 (assay buffer), and loaded with 2 μM FURA-2 AM (Molecular Probes) for 1 h at room temperature. […] [Ca^2+]i changes were monitored using a Nikon Diaphot 200 microscope equipped with a 10×/0.5 fluor objective with the TILL imaging system (T.I.L.L Photonics GmbH). Acquisition and analysis of the fluorescence images used TILL-Vision software. Generally, [Ca^2+]i was measured for 80-120 s by sequentially illuminating cells for 200 ms at 340 nm and 380 nm and monitoring the fluorescence emission at 510 nm using a cooled CCD camera. The F340/F380 ratio was analyzed to measure [Ca^2+]i. […]

For `C[C@@H]1C[C@@H]([C@H](O)CC2CC(=O)NC(=O)C2)C(=O)[C@@H](C)C1` [cycloheximide], the “coupling of mT2R5 to other G-proteins” value [1] was “no coupling”, the pEC50 [2] was ~5.64 and the “dose response compared with receptor from taster strains” value [2] was “shift in cycloheximide sensitivity”.
